Experimental data from patent publication US9365851B2, “Spalt-like transcription factor 4 (SALL4) and uses thereof” (National University of Singapore, priority 2011, dated 2016).
Entries after “also recorded” stand apart in the source; their conditions may differ. Where two headings read alike, the source gives them in different places.

Assays:
THP1 cells = assay: MTS cell viability assay; format: cell-based; details: THP1, 72 h
Description: (§1) Multiple leukemic and solid tumor cancer cell lines with high or low/no SALL4 expression (FIG. 10A) were chosen to test the biological effect(s) of the wild type peptide. Wild type or scrambled peptide was delivered into tumor cells at various concentrations, and their effects on cells were evaluated 72 hours post-treatment by the MTS cell viability assay. […] The effect of wild type peptide is SALL4-specific, as it had no effect on KBM5, an AML cell line with undetectable endogenous SALL4 expression. We were surprised to see that the wild type peptide had no effect on a high SALL4-expressing endometrioid cancer cell line, AN3CA. This prompted checking whether PTEN, a gene repressed by SALL4 through its interaction with NuRD 27, was present in this cell line. According to the model herein, the function of wild type peptide requires both the expression of SALL4 and intact SALL4 downstream target genes, such as PTEN. In tumor cells with PTEN deletion, even though wild type peptide could compete with endogenous SALL4 in interacting with the HDAC complex, an anti-proliferative effect might not be observed. Therefore, expression of PTEN was evaluated in AN3CA cells along with other cell lines. While PTEN protein was present in all the other cell lines, it was absent in AN3CA cells (FIG. 10C), with reported deletion mutation of the gene in this cell line 40,41. […] Furthermore, the anti-proliferative effect also required certain downstream targets, such as PTEN.
(§2) To further test whether the effect of wild type peptide on tumor cells is related to PTEN, a PTEN inhibitor (SF1670) was used (Li et al., Blood, 117:6702-6713). […] As a control for the specificity of SALL4, KBM5, a non-SALL4-expressing cell line was also treated with PTEN inhibitor.

KBM5 cells = assay: MTS cell viability assay; format: cell-based; details: KBM5 (no SALL4), 72 h
Description: as §1, §2

HL-60 cells = assay: Cell viability assay (MTT/MTS); format: cell-based, human; details: HL-60, 48-72 h
Description: FIG. 17: SALL4 peptide reduces the viability of leukemic HL-60 cells. HL60 human acute promyelocytic leukemia cells (ATCC), were cultured in RPMI medium with 10% FBS (Invitrogen). 5000 cells/well were seeded in 96 well plate. Peptides: MSRRKQAKPQHI-wt (SEQ ID NO: 1) and MSRRAQAKPQHI-mutant (SEQ ID NO: 6) were synthesized by Biosynthesis Inc. to 85% purity. Peptides and TSA were re-suspended in PBS and added to the final concentration as indicated. WT peptide was re-added 24 hours after the initial addition as indicated. Experiment was performed in triplicate. MTS assay was performed by adding 20 ul of the CellTiter 96® AQueous One Solution Reagent (Promega) directly to the cells in medium, incubating for 2 hours and then recording absorbance at 490 nm with a 96-well plate reader. The quantity of formazan product as measured by the amount of 490 nm absorbance is directly proportional to the number of living cells in culture.
(§3) Cell viability assay (MTT) (Invitrogen) was performed according to the manufacturer's instructions. Briefly—10000 cells were seeded in 100 ul medium in 96 well plates. The next day cells were treated as indicated on the figures. At the designated time after the treatment 20 ul of 5 mg/ml MTT solution was added to each well. After 3.5 h incubation at 37 C the medium was removed and the reaction was terminated with a solution of 4 mM HCl, 0.1% Nondet P-40 (NP40) all in isopropanol in dark on orbital shaker for […]. at room temperature. The absorbance was read at 590 nm with a reference filter of 620 nm in Spectromax M3 (ABI) spectrophotometer.
(§4) Multiple cell lines with or without SALL4 expression were chosen to test the biological effect(s) of this wt peptide. Wt or its control (Scr or Mut) peptide was delivered into tumor cells at various concentrations, and their effects on cells were evaluated at 48 or 72 hours post treatment by a MTT assay (Manufacture name). […] Since, as proposed herein, wt peptide can compete with SALL4 and release it from recruiting HDAC complex NuRD, the wt peptide would likely work as a HDAC inhibitor. Therefore, as a positive control, TSA, a broad HDAC inhibitor, was used in the same group of experiments along with the wt and Scr peptide.
Multiple leukemic and solid tumor cancer cell lines with high or low/no SALL4 expression (FIG. 10A) were chosen to test the biological effect(s) of the wild type peptide. Wild type or scrambled peptide was delivered into tumor cells at various concentrations, and their effects on cells were evaluated 72 hours post-treatment by the MTS cell viability assay. […] The effect of wild type peptide is SALL4-specific, as it had no effect on KBM5, an AML cell line with undetectable endogenous SALL4 expression. […] Therefore, expression of PTEN was evaluated in AN3CA cells along with other cell lines. […]

HDAC complex = biological target: T1, HDAC complex (Homo sapiens, UniProt Q09028); assay: Fluorescent polarization competitive binding in SNU-398 nuclear extracts; details: unlabeled peptide competing with FITC-labeled peptide
T1 construct: endogenous in cells; host or cells: SNU-398 nuclear extract
Description: Below are the amino acid sequences of the peptides used in this study. In the mutant peptide (mut), Lys 5 is replaced with an alanine residue. […] In the first lane marked “Input”, 10% of the extracts were subjected to western blot analysis without immunoprecipitation. […] Extracts were subsequently immunoprecipitated with anti-FITC antibody and the complexes pulled down were subjected to an HDAC activity assay as described in the methods. TSA was added at a concentration of 100 nM. Input is the sample in which 10% of the extract was assayed for HDAC activity without the immunoprecipitation step. […] Competitive binding of nonlabeled wild type or scrambled peptides was measured by fluorescent polarization. […] The fluorescent polarization (y axis) is decreased if the FITC-labeled peptide is displaced from a larger complex.
Next tested was the binding affinity of the wild type and scrambled peptides to the HDAC complex. For this, Fluorescent Polarization (FP), a technology based on molecular movement and rotation in which fluorescent molecules are excited with polarized light, was used. If the fluorescent molecules are part of a large complex, they rotate less and the emitted light has high polarity. In contrast, smaller molecules rotate faster and have low polarity (“depolarized”). […] Using this approach, FITC-labeled wild type or scrambled peptides were first mixed with nuclear extracts from SNU-398 cells. Serial dilutions of unlabeled wild type or scrambled peptides were then added as competitors respectively, and measured by FP assay.

MCF7 cells = assay: Cell viability assay (MTT); format: cell-based; details: MCF7, 48-72 h
Description: as §3, §4

T1 sequence (Q09028 whole entry, one chain of several): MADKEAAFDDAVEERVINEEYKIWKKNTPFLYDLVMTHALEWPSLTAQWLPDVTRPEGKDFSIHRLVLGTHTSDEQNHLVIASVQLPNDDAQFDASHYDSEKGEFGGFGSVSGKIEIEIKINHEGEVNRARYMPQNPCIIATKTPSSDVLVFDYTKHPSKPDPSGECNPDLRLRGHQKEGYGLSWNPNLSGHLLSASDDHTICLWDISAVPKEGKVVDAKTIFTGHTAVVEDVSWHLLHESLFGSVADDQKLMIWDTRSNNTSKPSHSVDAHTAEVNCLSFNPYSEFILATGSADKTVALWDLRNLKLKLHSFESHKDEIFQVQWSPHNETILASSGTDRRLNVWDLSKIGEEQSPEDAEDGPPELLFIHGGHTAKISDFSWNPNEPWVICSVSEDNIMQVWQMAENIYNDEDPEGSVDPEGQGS

Substance | cell viability (THP1 cells) | cell viability (KBM5 cells; listed as wild type) | cell viability (KBM5 cells; listed as wild type peptide) | cell viability (HL-60 cells) | cell viability (HL-60 cells; listed as WT) | cell viability (HL-60 cells; listed as wild type peptide) | IC50 (HDAC complex; read-out: IC50) | cell viability (MCF7 cells) | cell viability (MCF7 cells; listed as wild type peptide) | cell viability (KBM5 cells) | IC50 (HDAC complex)
H-MSRRKQAKPQHI-OH [wt peptide, MSRRKQAKPQHI] | decreased cell viability | no change in cell viability | had no effect | decreased cell viability | decrease in cell viability | decreased cell viability; also recorded: reduces the number of the living cells | 5 µM | decreased cell viability | displayed the same effect |  | 
Scr peptide: same 12 amino acids as the wt peptide, but in a scrambled sequence; negative control (SRMRQKIHPKIQ) [reference compound] | remained unaffected |  |  | remained unaffected |  |  |  | remained unaffected |  | no change in cell viability | could not be calculated due to the lack of binding activity
